{"source": "paper PMC9566605", "about": "(Cancer cell, 2022)", "key": {"[1]": {"test_system": "B16F10-iNOS cells", "test": "CTL assay of Pmel-1 cells against mixed B16F10-control and B16F10-iNOS cells", "format": "cell-based, mouse", "conditions": "B16F10-control and B16F10-iNOS mixed 1:1, activated Pmel-1 cells, pre-treated with RTA408"}, "[2]": {"test_system": "nitrotyrosine (NT) in LLC tumor tissue", "test": "Immunofluorescent NT staining of LLC tumor tissue", "format": "in vivo, mouse", "conditions": "LLC tumor-bearing mice treated with RTA408"}, "[3]": {"target": "T1, H-2D^b (Mus musculus, UniProt P01899)", "T1 sequence (P01899 25-362)": "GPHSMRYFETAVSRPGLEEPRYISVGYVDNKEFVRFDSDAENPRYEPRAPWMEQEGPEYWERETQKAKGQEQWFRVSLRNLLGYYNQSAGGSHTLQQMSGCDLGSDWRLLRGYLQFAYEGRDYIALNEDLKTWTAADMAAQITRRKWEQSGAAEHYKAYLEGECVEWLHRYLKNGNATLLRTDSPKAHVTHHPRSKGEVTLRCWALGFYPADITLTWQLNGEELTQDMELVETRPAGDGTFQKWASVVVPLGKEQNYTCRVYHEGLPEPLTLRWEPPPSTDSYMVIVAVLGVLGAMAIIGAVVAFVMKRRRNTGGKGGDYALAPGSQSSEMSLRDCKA", "T1 sequence (P01887 21-119 partner)": "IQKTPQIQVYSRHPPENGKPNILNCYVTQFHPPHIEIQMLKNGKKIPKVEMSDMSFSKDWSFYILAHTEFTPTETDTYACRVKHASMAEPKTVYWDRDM", "test": "RMA-S dissociation assay, H-2D^b", "format": "binding"}, "[4]": {"test_system": "EG.7 cells", "test": "Viability and surface marker expression of treated EG.7 cells", "format": "cell-based, mouse"}, "[5]": {"test_system": "H-2K^b associated peptides of EG.7 cells", "format": "cell-based, mouse"}, "[6]": {"test_system": "proteasome", "test": "Proteasomal activity in tumor cell lysates", "format": "biochemical, mouse"}, "[7]": {"test_system": "catalytic subunits of proteasomes", "test": "Amount of catalytic subunits of proteasomes in EG7 tumor cells", "format": "cell-based, mouse", "conditions": "EG7 tumor cells treated with PNT or bortezomib"}, "[8]": {"target": "T2, H-2K^b (Mus musculus, UniProt P01901)", "T2 sequence (P01901 whole entry, looked up)": "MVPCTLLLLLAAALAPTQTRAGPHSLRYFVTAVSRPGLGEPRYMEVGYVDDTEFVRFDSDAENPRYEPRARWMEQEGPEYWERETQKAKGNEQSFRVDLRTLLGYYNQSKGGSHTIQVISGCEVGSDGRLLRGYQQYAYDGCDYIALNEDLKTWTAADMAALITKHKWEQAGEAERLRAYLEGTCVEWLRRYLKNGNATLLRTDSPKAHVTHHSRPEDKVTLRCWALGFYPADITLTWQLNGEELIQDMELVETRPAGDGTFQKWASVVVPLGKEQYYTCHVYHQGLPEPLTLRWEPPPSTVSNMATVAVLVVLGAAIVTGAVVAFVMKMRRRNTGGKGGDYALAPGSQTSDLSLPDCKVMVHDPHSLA", "test": "RMA-S binding assay", "conditions": "2.5 mM PNT before peptide loading"}, "[9]": {"target": "T2, H-2K^b", "test": "RMA-S dissociation assay", "format": "binding", "conditions": "PNT before loading with peptides"}, "[10]": {"test_system": "EL4 cells", "test": "Empty MHC class I detection by […] loading of EL4 cells", "format": "cell-based, mouse", "conditions": "EL4 cells treated with PNT, n=4"}, "[11]": {"test_system": "EL4 tumor cells", "conditions": "pre-treatment of tumor cells with PNT; 5:1 ratio, annexin V/DAPI, 5 and 16 hours"}, "[12]": {"test_system": "human melanoma UACC903 cell line", "test": "SILAC LC-MS/MS of HLA-A, -B, -C bound peptides after PNT", "conditions": "UACC903 cells"}}, "data": [{"compound": "CC1(C)CC[C@]2(NC(=O)C(C)(F)F)CC[C@]3(C)[C@H](C(=O)C=C4[C@@]5(C)C=C(C#N)C(=O)C(C)(C)[C@@H]5CC[C@]43C)[C@@H]2C1", "note": "[RTA408, Omaveloxolone]", "values": [{"measurement": "resistance of B16F10-iNOS cells to killing by CTLs", "setting": "[1]", "value": "completely abrogated resistance"}, {"measurement": "NT staining in tumor tissues", "setting": "[2]", "value": "reduced NT staining"}]}, {"compound": "EGSRNQDWL", "values": [{"measurement": "dissociation from H-2D^b", "setting": "[3]", "value": "dissociated significantly faster"}]}, {"compound": "CC(C)C[C@H](NC(=O)[C@H](Cc1ccccc1)NC(=O)c1cnccn1)B(O)O", "note": "[bortezomib]", "values": [{"measurement": "expression of MHC class I (H2K^b)", "setting": "[4]; 15 nM bortezomib", "value": "did not affect"}, {"measurement": "viability of tumor cells", "setting": "[4]; 15 nM bortezomib", "value": "did not affect"}, {"measurement": "representation of MHCI peptides vs non-treated cells", "setting": "[5]; EG.7 cells, 15 nM bortezomib", "value": "substantial decrease"}, {"measurement": "proteasomal activity", "setting": "[6]; EG.7 cells, 15 nM bortezomib, N=5", "value": "modest inhibition"}, {"measurement": "amount of 6 catalytic subunits of proteasomes", "setting": "[7]", "value": "did not affect"}]}, {"compound": "O=NOO", "note": "[PNT, peroxynitrite]", "values": [{"measurement": "NT (nitrotyrosine) expression", "setting": "[4]; 2.5 mM PNT", "value": "substantial up-regulation"}, {"measurement": "cell viability", "setting": "[4]; 2.5 mM PNT", "value": "did not affect"}, {"measurement": "expression of MHCI H-2K^b molecules", "setting": "[4]; 2.5 mM PNT", "value": "did not affect"}, {"measurement": "recovery of H-2K^b peptide profile", "setting": "[5]; 2.5 mM PNT on ice 5 min, 16 h after the treatment", "value": "returned to the pre-treatment level"}, {"measurement": "change in H-2K^b peptide profile", "setting": "[5]; 2.5 mM PNT on ice 5 min, right after the treatment (0 min)", "value": "no substantial changes"}, {"measurement": "effect of PNT pre-treatment of RMA-S cells on binding of the peptides", "setting": "[8]", "value": "only a small decrease"}, {"measurement": "effect of PNT treatment of RMA-S cells on dissociation rates", "setting": "[9]", "value": "no detectable effect"}, {"measurement": "effect on proteasomal activity in IFN-γ pre-treated vs non-pre-treated cells", "setting": "[6]; EG7 and LLC cells, 100 ng/ml IFN-γ 24 hours, then PNT", "value": "the same"}, {"measurement": "recovery of proteasomal activity over time", "setting": "[6]; EG.7 cells, 2.5 mM PNT, chymotrypsin, trypsin and caspase-like activities", "value": "almost completely restored by 22 hours"}, {"measurement": "proteasome types and activities affected", "setting": "[6]; EL4 and LLC cell lines, 2.5 mM PNT 5 min on ice, proteasome-specific fluorogenic substrates", "value": "affected mostly chymotrypsin- and trypsin-like activities associated with constitutive proteasomes"}, {"measurement": "proteasomal activity", "setting": "[6]; tumor cells treated with 2.5 mM PNT for 5 min, n=3", "value": "profound decrease"}, {"measurement": "amount of 6 catalytic subunits of proteasomes", "setting": "[7]", "value": "did not affect"}, {"measurement": "total H-2Kb expression, PNT-treated vs control cells", "setting": "[10]", "value": "no differences"}, {"measurement": "killing of tumor cells by CTLs generated against PNT-resistant peptides", "setting": "[11]", "value": "did not affect killing"}, {"measurement": "change in HLA-A, -B, -C bound peptide profile", "setting": "[12]", "value": "substantially changed the peptide profile"}]}]}
